Assay results: patent US7306817B2, “Herbal composition for treating CD33+ acute and chronic myeloid leukemia and a method thereof” (Council of Scientific and Industrial Research, priority 2000, dated 2007)

What was measured:
[1] = tested on: CD33+ myeloid leukemia cells; assay: Destruction of CD33+ myeloid leukemia cells (patient PBMC) in vitro, viability count and flow cytometry; assay type: cell-based, human; settings: purified compound, varied concentrations, 48 h
Description: (§1) Whole blood (10 ml) was drawn from a previously diagnosed CD33+ myeloid leukemic patient and mononuclear cells were separated by Ficoll/hypaqal density gradient centrifugation.
Incubation of PBMC of myeloid leukemia patients with crude Piper betel extract. PBMC (2×10^6/ml) of myeloid leukemia patients were incubated with Piper betel extract (10.0 mg/ml) for 48 hours and then washed and counted for viability.
Incubation of PBMC of myeloid leukemia patients with fraction E in vitro. PBMC (2×10^6/ml) of myeloid leukemia patients were incubated with varied concentrations of fraction E for 48 hours. Cells were then washed and counted for viability.
(§2) Incubation of PBMC of myeloid leukemia patients with purified compound 3-O-p-coumaryl quinic acid in vitro. PBMC (2×10^6/ml) of myeloid leukemia patients were incubated with varied concentrations of purified compound for 48 h. Cells were then washed, and counted for viability.
Flow cytometry of myeloid leukemia cells; Myeloid leukemia cells before and after in vitro incubation with crude Piper betel extract, purified fraction E or purified 3-O-p-coumaryl quinic acid were marked with anti-CD33-FITC and anti-CD13-PE monoclonal antibodies. Cells were then analysed in a flow cytometer (FACS Calibur, Bection Dickinson, USA).

AML cells = assay: Growth inhibition of AML cells in vitro; assay type: cell-based, human; settings: single fraction, dose 100 μg/ml, 48 hrs
Description: as §1, §2
Incubation of myeloid leukemic cells with fractions having retention time 3.60 (fraction-1) and 24.00 min (fraction 9). PBMC of myeloid leukemic patients were incubated with above-mentioned fractions, alone or in combination of the two for 48 hrs. Cells were then washed and counted for viability.

Compound: O=C(C=Cc1ccc(O)cc1)OC1CC(O)(C(=O)O)CC(O)C1O (centres unmarked) [3-O-p-coumaryl quinic acid]
- effect on PBMC of CD33+ myeloid leukemia patients (both AML and CML) [1]: destroyed
- % Inhibition of growth (AML cells): 54.00%
